Laboratory results published in patent US4588822A, “Physiologically active substances SS 12538, their preparation and a novel microorganism producing same” (SS Pharmaceutical Co., Ltd., priority 1982, dated 1986).
Values after ≈ are worked out from the molar mass of the structure shown. Read-outs that look alike come from different tables or passages of the source.

Experiments:
mongrel dogs = experiment: Vasodilating activity in anesthetized mongrel dogs (coronary blood flow, blood pressure, heart rate after dosing into the vein); format: in vivo, dog (mongrel); settings: for Blood Pressure Duration / Blood Pressure Reduction / Coronary Blood Flow Duration / Coronary Blood Flow Increase / Heart Rate Reduction: i.v., dog; for titer relative to dipyridamol: compared with currently employed dipyridamol
Protocol: 4 male mongrel dogs, weighing 15-25 Kg, were provided as laboratory animals and were anesthesized with sodium pentobarbital (30 mg/kg i.v.). Thereafter, the left circumflex coronary artery was exposed under artificial respiration and a probe of an electromagnetic flow meter was attached. A polyethylene cannula was inserted into the left femoral artery.
Test compounds were dissolved in a small amount of dimethyl sulfoxide and diluted with a sterilized physiological saline for injection, followed by dosing it into the vein.
Coronary blood was measured by means of the electromagnetic flow meter and the blood pressure was determined from the polyethylene cannule through a pressure transducer. Also, heart rate was measured by an instantaneous pulse meter from RR intervals of an electrocardiogram. Each parameter was recorded on a polygraph. Changes of these parameters prior to and after administration of each compound were observed.
In accordance with the procedure as used with SS 12538A, the vasodilating activity of SS 12538B was determined.
In the same manner as in the case of SS 12538A, the vasodilating activity of SS 12538C was determined with the results shown in Table 5.

[1] = tested on: Staphylococcus epidermidis ATCC 12228; experiment: Antibacterial activity (MIC), Staphylococcus epidermidis ATCC 12228; format: cell-based
Excerpt: (§1) Minimum inhibitory concentration (MIC) of the physiologically active substance SS 12538A against various microorganisms are shown in FIG. 2.
(§2) Minimum inhibitory concentration (MIC) of the physiologically active substance SS 12538B against various microorganisms are shown in Table 4 below.
(§3) Minimum inhibitory concentration (MIC) of the physiologically active substance SS 12538C against various microorganisms are shown in Table 6 below.

[2] = tested on: Microsporum gypseum IFO 8231; experiment: Antifungal activity (MIC), Microsporum gypseum IFO 8231; format: cell-based; settings: Nannizzia gypsea
Excerpt: as §1, §2, §3

[3] = tested on: Pseudomonas aeruginosa IFO 13736; experiment: Antibacterial activity (MIC), Pseudomonas aeruginosa IFO 13736; format: cell-based
Excerpt: as §1, §2, §3

[4] = tested on: Klebsiella pneumoniae ATCC 10031; experiment: Antibacterial activity (MIC), Klebsiella pneumoniae ATCC 10031; format: cell-based
Excerpt: as §1, §2, §3

Bacillus cereus IID 871 = experiment: Antibacterial activity (MIC), Bacillus cereus IID 871; format: cell-based
Excerpt: as §1, §2, §3

[5] = tested on: Aspergillus niger ATCC 9642; experiment: Antifungal activity (MIC), Aspergillus niger ATCC 9642; format: cell-based
Excerpt: as §1, §2, §3

[6] = tested on: Trichophyton mentagrophytes QM 248; experiment: Antifungal activity (MIC), Trichophyton mentagrophytes QM 248; format: cell-based
Excerpt: as §1, §2, §3

[7] = tested on: Micrococcus lysodeikticus IFO 3333; experiment: Antibacterial activity (MIC), Micrococcus lysodeikticus IFO 3333; format: cell-based; settings: Micrococcus luteus
Excerpt: as §1, §2, §3

Solubilities in solvents = format: physicochemical; settings: for Solubility in organic solvents: chloroform, ethyl acetate, acetone, ethyl ether, ethanol, methanol, pyridine, benzene and dimethyl sulfoxide
Escherichia coli 0-1 = experiment: Antibacterial activity (MIC), Escherichia coli 0-1; format: cell-based
Excerpt: as §1, §2, §3

[8] = tested on: Staphylococcus aureus ATCC 6538P; experiment: Antibacterial activity (MIC), Staphylococcus aureus ATCC 6538P; format: cell-based; settings: ATCC6538P, read-out: Minimum Inhibitory Concentration MIC
Excerpt: as §1, §2, §3

[9] = tested on: Saccharomyces cerevisiae ATCC 9763; experiment: Antifungal activity (MIC), Saccharomyces cerevisiae ATCC 9763; format: cell-based
Excerpt: as §1, §2, §3

[10] = tested on: Bacillus subtilis ATCC 6633; experiment: Antibacterial activity (MIC), Bacillus subtilis ATCC 6633; format: cell-based
Excerpt: as §1, §2, §3

[11] = tested on: Candida albicans ATCC 10231; experiment: Antifungal activity (MIC), Candida albicans ATCC 10231; format: cell-based
Excerpt: as §1, §2, §3

[12] = ATCC12228, Staphylococcus epidermidis ATCC 12228, read-out: Minimum Inhibitory Concentration MIC
[13] = IFO8231, Microsporum gypseum IFO 8231, read-out: Minimum Inhibitory Concentration MIC
[14] = IFO13736, Pseudomonas aeruginosa IFO 13736, read-out: Minimum Inhibitory Concentration MIC
[15] = ATCC10031, Klebsiella pneumoniae ATCC 10031, read-out: Minimum Inhibitory Concentration MIC
[16] = IID871, Bacillus cereus IID 871, read-out: Minimum Inhibitory Concentration MIC
[17] = ATCC9642, Aspergillus niger ATCC 9642, read-out: Minimum Inhibitory Concentration MIC
[18] = QM248, Trichophyton mentagrophytes QM 248, read-out: Minimum Inhibitory Concentration MIC
[19] = IFO3333, Micrococcus lysodeikticus IFO 3333, read-out: Minimum Inhibitory Concentration MIC
[20] = 01, Escherichia coli 0-1, read-out: Minimum Inhibitory Concentration MIC
[21] = Staphylococcus aureus ATCC 6538P
[22] = ATCC9763, Saccharomyces cerevisiae ATCC 9763, read-out: Minimum Inhibitory Concentration MIC
[23] = ATCC6633, Bacillus subtilis ATCC 6633, read-out: Minimum Inhibitory Concentration MIC
[24] = ATCC10231, Candida albicans ATCC 10231, read-out: Minimum Inhibitory Concentration MIC

## OCCN(CCO)c1nc(N2CCCCC2)c2nc(N(CCO)CCO)nc(N3CCCCC3)c2n1 [Dipyridamol, dipyridamol, reference compound]
Mongrel dogs; dose 300 μg/kg
  Blood Pressure Duration: 16 min
  Blood Pressure Reduction: 13.2%
  Coronary Blood Flow Duration: 20 min
  Coronary Blood Flow Increase: 135.7%
  Heart Rate Reduction: 0%

## CC=C(C)C(O)C(C)C=C(C)C=CCC(C)=CCc1oc(OC)c(C)c(=O)c1C (stereo not drawn) [SS 12538A]
[1]; [12]
  MIC: < 6.25 µg/mL
[2]; [13]
  MIC: < 6.25 µg/mL
[3]; [14]
  MIC: > 100 µg/mL
[4]; [15]
  MIC: > 100 µg/mL
Bacillus cereus IID 871; [16]
  MIC: 12.5 µg/mL (≈ 31.2 µM)
[5]; [17]
  MIC: > 100 µg/mL
[6]; [18]
  MIC: > 100 µg/mL
Mongrel dogs
  titer relative to dipyridamol: about 30 times
Mongrel dogs; dose 3 μg/kg
  Blood Pressure Duration: 7 min
  Blood Pressure Reduction: 4.9%
  Coronary Blood Flow Duration: 10 min
  Coronary Blood Flow Increase: 17.1%
  Heart Rate Reduction: 2.3%
Mongrel dogs; dose 10 μg/kg
  Blood Pressure Duration: 10 min
  Blood Pressure Reduction: 12.6%
  Coronary Blood Flow Duration: 20 min
  Coronary Blood Flow Increase: 168.6%
  Heart Rate Reduction: 2.9%
Mongrel dogs; dose 30 μg/kg
  Blood Pressure Duration: 30 min
  Blood Pressure Reduction: 28.7%
  Coronary Blood Flow Duration: 40 min
  Coronary Blood Flow Increase: 441.3%
  Heart Rate Reduction: 1.8%
[7]; [19]
  MIC: 25 µg/mL (≈ 62.4 µM)
Solubilities in solvents
  Solubility in organic solvents: Soluble
  Solubility in water: sparingly soluble
Escherichia coli 0-1; [20]
  MIC: > 100 µg/mL
[8]; [21]
  MIC: > 100 µg/mL
[9]; [22]
  MIC: > 100 µg/mL
[10]; [23]
  MIC: > 100 µg/mL
[11]; [24]
  MIC: > 100 µg/mL

## CC=C(C)C(O)C(C)C=C(C)C=CCC(C)=CCc1oc(OC)cc(=O)c1C (stereo not drawn) [SS 12538B]
[1]; [12]
  MIC: 25 µg/mL (≈ 64.7 µM)
[2]; [13]
  MIC: 100 µg/mL (≈ 259 µM)
[3]; [14]
  MIC: > 100 µg/mL
[4]; [15]
  MIC: > 100 µg/mL
Bacillus cereus IID 871; [16]
  MIC: 50 µg/mL (≈ 129 µM)
[5]; [17]
  MIC: > 100 µg/mL
[6]; [18]
  MIC: 25 µg/mL (≈ 64.7 µM)
Mongrel dogs
  titer relative to dipyridamol: about 30 times
Mongrel dogs; dose 3 μg/kg
  Blood Pressure Duration: 6 min
  Blood Pressure Reduction: 7.5%
  Coronary Blood Flow Duration: 10 min
  Coronary Blood Flow Increase: 103.3%
  Heart Rate Reduction: 2.0%
Mongrel dogs; dose 10 μg/kg
  Blood Pressure Duration: 20 min
  Blood Pressure Reduction: 27.7%
  Coronary Blood Flow Duration: 15 min
  Coronary Blood Flow Increase: 143.8%
  Heart Rate Reduction: 13.0%
[7]; [19]
  MIC: 25 µg/mL (≈ 64.7 µM)
Solubilities in solvents
  Solubility in organic solvents: Soluble
  Solubility in water: sparingly soluble
Escherichia coli 0-1; [20]
  MIC: > 100 µg/mL
[8]; [21]
  MIC: 25 µg/mL (≈ 64.7 µM)
[9]; [22]
  MIC: > 100 µg/mL
[10]; [23]
  MIC: 50 µg/mL (≈ 129 µM)
[11]; [24]
  MIC: > 100 µg/mL

## CC=C(C)C(O)C(C)C=C(C)C=CCC(C)=CCc1oc(OC)c(CC)c(=O)c1C (stereo not drawn) [SS 12538C]
[1]; Staphylococcus epidermidis, ATCC12228, read-out: Minimum Inhibitory Concentration MIC
  MIC: 25 µg/mL (≈ 60.3 µM)
[2]; IFO8231, read-out: Minimum Inhibitory Concentration MIC
  MIC: > 100 µg/mL
[3]; Pseudomonas aeruginosa, IFO13736, read-out: Minimum Inhibitory Concentration MIC
  MIC: > 100 µg/mL
[4]; Klebsiella pneumoniae, ATCC10031, read-out: Minimum Inhibitory Concentration MIC
  MIC: > 100 µg/mL
Bacillus cereus IID 871; Bacillus cereus, IID871, read-out: Minimum Inhibitory Concentration MIC
  MIC: 25 µg/mL (≈ 60.3 µM)
[5]; Aspergillus niger, ATCC9642, read-out: Minimum Inhibitory Concentration MIC
  MIC: > 100 µg/mL
[6]; Trichophyton mentagrophytes, QM248, read-out: Minimum Inhibitory Concentration MIC
  MIC: 50 µg/mL (≈ 121 µM)
Mongrel dogs
  titer relative to dipyridamol: about 3 times
Mongrel dogs; dose 10 μg/kg
  Blood Pressure Duration: 0 min
  Blood Pressure Reduction: 0%
  Coronary Blood Flow Duration: 5 min
  Coronary Blood Flow Increase: 30.0%
  Heart Rate Reduction: 0%
Mongrel dogs; dose 30 μg/kg
  Blood Pressure Duration: 10 min
  Blood Pressure Reduction: 2.9%
  Coronary Blood Flow Duration: 10 min
  Coronary Blood Flow Increase: 60.0%
  Heart Rate Reduction: 0%
Mongrel dogs; dose 100 μg/kg
  Blood Pressure Duration: 15 min
  Blood Pressure Reduction: 8.5%
  Coronary Blood Flow Duration: 15 min
  Coronary Blood Flow Increase: 130.0%
  Heart Rate Reduction: 10.1%
[7]; IFO3333, read-out: Minimum Inhibitory Concentration MIC
  MIC: 12.5 µg/mL (≈ 30.2 µM)
Solubilities in solvents
  Solubility in organic solvents: Soluble
  Solubility in water: sparingly soluble
Escherichia coli 0-1; Escherichia coli, 01, read-out: Minimum Inhibitory Concentration MIC
  MIC: > 100 µg/mL
[8]; Staphylococcus aureus
  MIC: 100 µg/mL (≈ 241 µM)
[9]; Saccharomyces cerevisiae, ATCC9763, read-out: Minimum Inhibitory Concentration MIC
  MIC: > 100 µg/mL
[10]; Bacillus subtilis, ATCC6633, read-out: Minimum Inhibitory Concentration MIC
  MIC: > 100 µg/mL
[11]; Candida albicans, ATCC10231, read-out: Minimum Inhibitory Concentration MIC
  MIC: > 100 µg/mL
